This passage reports IC50 results from patent US10308615B2, “Heterocyclic compounds as inhibitors of Vanin-1 enzyme” (Pfizer Inc., priority 2015, dated 2019).

The term IC50 denotes the concentration that inhibits the measured activity by half. Lower therefore signals greater potency in that assay.

T1 sequence (O95497 22-491): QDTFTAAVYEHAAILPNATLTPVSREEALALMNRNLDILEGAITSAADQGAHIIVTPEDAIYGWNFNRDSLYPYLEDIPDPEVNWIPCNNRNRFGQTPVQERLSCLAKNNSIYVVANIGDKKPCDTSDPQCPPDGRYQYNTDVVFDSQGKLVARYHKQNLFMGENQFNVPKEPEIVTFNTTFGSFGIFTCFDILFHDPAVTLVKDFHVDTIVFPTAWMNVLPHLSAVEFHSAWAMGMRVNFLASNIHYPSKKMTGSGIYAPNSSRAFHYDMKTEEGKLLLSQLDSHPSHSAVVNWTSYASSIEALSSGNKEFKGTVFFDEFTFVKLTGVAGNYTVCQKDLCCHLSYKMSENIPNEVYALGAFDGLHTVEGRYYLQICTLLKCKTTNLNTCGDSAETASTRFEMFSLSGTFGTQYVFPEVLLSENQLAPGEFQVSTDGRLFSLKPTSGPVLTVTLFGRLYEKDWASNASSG

One assay deals with T1, human vanin-1 (Homo sapiens (Human), UniProt O95497). The assay is described as follows: Human Vanin-1 Enzyme Assay 1. The assay is classed as biochemical. The conditions noted are these: 25 pM human vanin-1, 50 uM pantetheine 7-amino-4-trifluoromethylcoumarin, 30 min preincubation, 60 min. As to the method:
Human Vanin-1 Enzyme Assay 1.
(§1) The in vitro assay measures enzymatic cleavage of the fluorescently-labeled vanin substrate, pantetheine 7-amino-4-trifluoromethylcoumarin, by human vanin-1.
(§2) The vanin-1 protein was prepared in-house from a construct expressing the extracellular domain of human vanin-1 (GenBank ID NM_004666) preceded N-terminally by the honey bee melittin signal peptide, a GSG linker sequence, a His6X tag and a FLAG tag. The secreted, soluble enzyme was purified from the conditioned medium from a CHO cell line stably expressing the resulting protein. Enzyme purification was performed through sequential Ni NTA and size-exclusion chromatography steps.
The test inhibitors were solubilized in DMSO to a stock concentration of 30 mM. On the day of the assay, dose response plates were prepared by diluting the inhibitors in DMSO at compound concentration 200-fold the final in-assay concentration. Intermediate concentrations were prepared by diluting in DMSO in a four-fold series for a total of 11 data points.
To prepare a working solution of human vanin-1, the enzyme was diluted to 33.3 pM in the assay buffer consisting of 50 mM Tris-HCl pH=8.0, 50 mM KCl, 0.005% Brij-35 and […] cysteamine. To begin the assay 100 nL was transferred from the compound plate to the assay plate. Next, 15 μL of the vanin-1 working solution were transferred to the assay plate. The inhibitor and enzyme were incubated at room temperature for 30 minutes. The enzyme reaction was then initiated by the addition of 5 μL of 200 μM pantetheine 7-amino-4-trifluoromethylcoumarin prepared in assay buffer. The final concentrations in the assay were 25 pM human vanin-1 and 50 uM substrate. The final concentration of DMSO was 0.5%. The assay plates were incubated for 60 minutes and before they were read on a Perkin Elmer EnVision Model 2103 using a 405 nm excitation wavelength and a 510 nm emission wavelength for detection.
`N#Cc1cc(Cl)cc(C(=O)c2cnc(NC3(c4cncnc4)CC3)nc2)c1` [Example 146, 3-chloro-5-[(2-{[1-(pyrimidin-5-yl)cyclopropyl]amino}pyrimidin-5-yl)carbonyl] benzonitrile] showed an IC50 of 26 nM. The same measure, in the same setting: for `NC(=O)c1cccc(C(=O)c2cnc(NC3(c4cnccn4)CC3)nc2)c1` [Example 147, 3-[(2-{[1-(pyrazin-2-yl)cyclopropyl]amino}pyrimidin-5-yl)carbonyl] benzamide] the value was 55.7 nM; for `O=C(O)c1cccc(C(=O)c2cnc(NC3(c4cncnc4)CC3)nc2)c1` [Example 148, 3-[(2-{[1-(pyrimidin-5-yl)cyclopropyl]amino}pyrimidin-5-yl)carbonyl] benzoic acid], 260 nM; for `NC(=O)c1cccc(C(=O)c2cnc(NC3(c4cncnc4)CC3)nc2)c1` [Example 149, 3-[(2-{[1-(pyrimidin-5-yl)cyclopropyl]amino}pyrimidin-5-yl)carbonyl] benzamide], 25.6 nM. Still for that read-out and setting: the figure for `O=C(O)Cc1cccc(C(=O)c2cnc(NC3(c4cncnc4)CC3)nc2)c1` [Example 150, {3-[(2-{[1-(pyrimidin-5-yl)cyclopropyl]amino}pyrimidin-5-yl)carbonyl]phenyl}acetic acid] is 23.9 nM; for `N#Cc1cccc(C(=O)c2cnc(NC3(c4cnc(N)cn4)CC3)nc2)c1` [Example 151, 3-[(2-{[1-(5-aminopyrazin-2-yl)cyclopropyl]amino}pyrimidin-5-yl)carbonyl] benzonitrile] it is 27.8 nM. Compound `N#Cc1cccc(C(=O)c2cnc(NC3(c4ccc(C(N)=O)nc4)CC3)nc2)c1` [Example 152, 5-(1-{[5-(3-cyanobenzoyl)pyrimidin-2-yl]amino}cyclo-propyl)pyridine-2-carboxamide] registered an IC50 of 77.7 nM. Still for that read-out and setting: the figure for `N#Cc1cccc(C(=O)c2cnc(NC3(c4ccc(O)nc4)CC3)nc2)c1` [Example 153, 3-[(2-{[1-(6-hydroxypyridin-3-yl)cyclopropyl]amino}pyrimidin-5-yl)carbonyl] benzonitrile] is 307 nM. The same measure, in the same setting: the figure for `COc1ccc(C(=O)c2cnc(NC3(c4cncnc4)CC3)nc2)cc1C#N` [Example 161, 2-methoxy-5-[(2-{[1-(pyrimidin-5-yl)cyclopropyl]amino}pyrimidin-5-yl)carbonyl] benzonitrile] is 1850 nM; for `N#Cc1cccc(C(=O)c2cnc(NCC3CCC(O)CC3)nc2)c1` (stereo not shown) [Example 162, 3-[(2-{[(4-hydroxycyclohexyl)methyl]amino}pyrimidin-5-yl)carbonyl] benzonitrile] it is 72.6 nM.

The next assay concerns the target T1, human vanin-1. In words: Human Vanin-1 Enzyme Assay 3. The assay is classed as biochemical. The following applies: 2 nM human vanin-1, 10 uM substrate, 15 min. On the procedure: Human Vanin-1 Enzyme Assay 3.
as §1, §2
On the day of the assay, dose response plates were prepared by diluting the inhibitors in DMSO at compound concentration 100-fold the final in-assay concentration. Concentration series were prepared by serially diluting in DMSO in a two-fold series for a total of 11 data points. Intermediate compound plates containing compound in 10% DMSO were then created by diluting the compounds 10-fold in assay buffer consisting of 50 mM Tris-HCl pH=8.0, 50 mM KCl, 0.005% Brij-35 and 1.5 mM cysteamine. To begin the assay 3 μL were transferred from the intermediate compound plate to the assay plate.
A working solution of human vanin-1 was prepared by diluting the enzyme stock to 2.5 nM in assay buffer. Next, 24 μL of the vanin-1 working solution were transferred to the assay plate. The enzyme reaction was then initiated by the addition of 3 μL of 100 μM pantetheine 7-amino-4-trifluoromethylcoumarin prepared in 5 uM acetic acid. The final concentrations in the assay were 2 nM human vanin-1 and 10 uM substrate. The final concentration of DMSO was 1%. The assay plates were incubated at room temperature for 15 minutes and before they were read on a Tecan Safire using a 405 nm excitation wavelength and a 505 nm emission wavelength for detection.
Compound `N#Cc1cccc(C(=O)c2cnc(NC3(c4cccnc4)CC3)nc2)c1` [Example 2, 3-[(2-{[1-(pyridin-3-yl)cyclopropyl]amino}pyrimidin-5-yl)carbonyl]benzonitrile] gave a concentration for half-maximal inhibition (IC50) of 2.1 nM. This lies in the single-digit nanomolar range.

As for `O=C(c1cnc(NCc2ccc(F)cc2)nc1)c1cccc(Cl)c1` [Example 36, (3-chlorophenyl){2-[(4-fluorobenzyl)amino]pyrimidin-5-yl}methanone], the IC50 worked out at 31 nM. Same read-out and setting: for `N#Cc1ccc(CNc2ncc(C(=O)c3ccc(C(F)(F)F)cc3)cn2)cc1` [Example 50, 4-[({5-[4-(trifluoromethyl)benzoyl]pyrimidin-2-yl}amino)methyl] benzonitrile] the value was 204 nM; for `O=C(c1ccc(C(F)(F)F)cc1)c1cnc(NCc2cccnc2)nc1` [Example 51, {2-[(pyridin-3-ylmethyl)amino]pyrimidin-5-yl}[4-(trifluoromethyl)phenyl]methanone], 44.9 nM.

On to `O=C(c1ccc(Cl)cc1)c1cnc(NCc2ccc(F)cc2)nc1` [Example 52, (4-chlorophenyl){2-[(4-fluorobenzyl)amino]pyrimidin-5-yl}methanone], for which the midpoint of inhibition, the IC50, lay at 170 nM. Compared with the last compound, the IC50 is about 3.8-fold higher.

Compound `COc1ccc(CNc2ncc(C(=O)c3ccc(OC)cc3)cn2)cc1` [Example 53, {2-[(4-methoxybenzyl)amino]pyrimidin-5-yl}(4-methoxyphenyl) methanone] had a 50% inhibitory concentration (IC50) of 637 nM.
